Tested on: Tie2+ ECs (HMVEC-LBl)
Experiment: MTS cell viability assay, endothelial cells
Assay type: cell-based, human
Details: for IC50: Homo sapiens, Endothelial cell, 48 h, SU in MTS viability assay, predetermined from dose-response curves, cell line of IC50 not clearly printed
Protocol: TCs were cultured in DMEM High Glucose basal media supplemented with 5% FBS and grown humidified incubators at 37 °C, 21%O2 and 5%CO2 unless otherwise specified. LM2-4 luc is a highly metastatically aggressive variant of the human breast carcinoma MDA-MB-231 cell line (derived through serial in vivo selection of lung metastases from orthotopic implantations in immunodeficient mice) that has been transfected with a firefly luciferase vector (Man et al, 2007; Ebos et al, 2009). HT29luc is a human colon carcinoma cell line also transfected with the luciferase gene (Hackl et al, 2013). SN12luc refers to a luciferase-tagged and highly metastatic clone of a human renal cell carcinoma cell line, SN12-PM6-L1luc (Jedeszko et al, 2015). MeWo is a human melanoma cell line (Ebos et al, 2009).
2. Endothelial cells (ECs)
ECs were grown in humidified incubators at 37 °C, 21%O2 and 5%CO2 unless otherwise specified.
Primary human microvascular ECs derived from adult lung blood vessels (HMVEC-LBl, Lonza CC-2815 or HLMEC ) or neonatal dermal blood vessels (HMVEC-DBl, Lonza CC-2813 or HDMEC) were grown in EBM-2 basal media (Lonza CC-3156), supplemented with EGM-2-MV growth factors (Lonza CC-4147, which includes 5% FBS and 2 ng/mL VEGF). Primary human umbilical vein ECs (HUVECs) were grown on 1% gelatinized plates in F12K media, supplemented with 10% FBS, 0.1 mg/mL heparin sodium, 10 ng/mL EGF, 10 ng/mL VEGF, 5 ng/mL bFGF and penicillin + streptomycin + 2mM L-glutamine (P/S/Glut). Transformed human EA.hy926 and murine MS1 ECs were grown in DMEM + 10% FBS + P/S/Glut (+ HAT for EA.hy926).
3. […]
5,000 LM2-4luc or HMVEC-LBl cells, in 100uL of their regular growth media, were seeded per well on a 96-well plate. […] Absorbances were read at 490nm and background-corrected with reference 560nm readings or acellular treatment-only […]
4. […] Protein concentrations in TC-CM vs. control media were measured using: a Quantikine ELISA kit (R&D Systems DVE00) for human VEGF; a FlowCytomix Multiplex kit (eBioscience BMS810FF) for human IL-6 and IL-8; and a BCA protein assay kit (Thermo Scientific) for total protein.

## CCN(CC)CCNC(=O)c1c(C)[nH]c(/C=C2\C(=O)Nc3ccc(F)cc32)c1C [sunitinib, reference compound]
'VEGF-rich' media (0.5% FBS + 50 ng/mL VEGF)
  IC50: 5 µM
'normal' media (5% FBS)
  IC50: 2 µM

## CHHHRHSF [Vasculotide, 4-armed maleimide-functionalized polyethylene glycol (PEG) backbone to link together four cysteine-capped T7 peptides, that is, CHHHRHSF]
48 h MTS, VT + SU, Supplementary Fig S2
  interference with SU inhibition of ECs: did not interfere with SU inhibition of Tie2^+ ECs
